# Measurements: patent publication US10485814B2, “Nicotinamide riboside analogs and pharmaceutical compositions and uses thereof” (GlaxoSmithKline Intellectual Property (No. 2) Limited, priority 2014, dated 2019)
# Assays:
# [1] = test system: HaCaT cells (a human keratinocyte cell line); experiment: Intracellular NAD measurement in HaCaT cells (ADPR cyclase enzymatic assay, absorbance 405 nm); assay type: cell-based
# Procedure: HaCaT cells (AddexBio Technologies, San Diego, Calif., Passage 16-19) were grown in Medium DMEM/GlutMax (Life technologies, Grand Island, N.Y.) supplemented with 10% FBS (Life technologies) and Non-essential amino acids (NEAA, Life technologies) and then seeded in 12-well plates (Corning, Tewksbury, Mass.) with a density at 2×10^5 cells per well and 2 ml of culture medium in each well for overnight.
# Stock solution of dihydronicotinamide riboside (NRH, GSK3008320A, GSK, RTP, NC) was prepared in ethanol at 100 mM (25.6 mg/ml) and stored at −20° C. Cells were treated with different concentrations of NRH for 3 hrs, washed twice with PBS containing 5 mM EDTA, and then subject to Nicotinamide adenine dinucleotide (NAD) measurement. In brief, acetonitrile (ACN) lysis buffer (Ammonium Acetate (50 mM) and 90% acetonitrile) was added to each well (200 μl/well) to lyse the cells at RT for 5-10 mins by gently rotating on a culture plate shaker at a low speed. Enzyme master mix (300 μM of 5-Amino-(3,4′-bipyridin)-6(1H)-one (Inamrinone) (Sigma-Aldrich), a substrate for ADP ribosyl cyclase (ADPR cyclase)) and 30 nM ADPR Cyclase (Sigma, St. Louis, Mo.), 7.5 μM of N-(2-fluoro-4-(methylsulfonyl)phenyl)-2-methyl-6-(thiazol-5-yl)isonicotinamide (a CD38 inhibitor) in 75 mM HEPES pH7 buffer (Life Technologies)) was added to the lysed cells (400 μl of enzyme master mix/well). Enzymatic reaction was incubated at RT for ˜30 min. At the end of incubation, the supernatant (200 μl) of the reaction solution from each well was transferred to each well of a 96-well plate and absorbance was read twice in the 96-well plate at 405 nm using a plate reader (Spectra Maxplus, Molecular Devices, Sunnyvale, Calif.). A mixture of enzyme master mix and ACN extraction solution at 2:1 ratio was used as a blank reference. NAD (Sigma) was used as a positive control.
# HaCaT cells were grown as described in example 23 in the regular cell culture DMEM medium as described earlier or in the Epilife medium without nacinamide (Life Technologies). Cells were treated with different concentrations of NRH or niacinamide (NIA, DSM nutritional products) for 3 hrs, washed twice with PBS containing 5 mM EDTA, and then subject to Nicotinamide adenine dinucleotide (NAD) measurement as described in example 23. A mixture of enzyme master mix and ACN extraction solution at 2:1 ratio for a blank reference. NAD (Sigma) was used as a positive control. […] Both the CD38 inhibitor and Niacinamide increased NAD in the HaCaT cells cultured in the Vit B3 depleted culture medium, and the induction of NAD by niacinamide was dose-dependent (solid bars). However, the induction of NAD by niacinamide (highest at ˜1.5 fold) was low compared to those by NRH. Therefore, NRH is a stronger NAD inducer compared to a CD38 inhibitor or Niacinamide.
# (§1) HaCaT cells were grown in regular culture media as described in example 1 and seeded in 12-well plates with density at 2×10^5 cells per well and 1 ml of culture medium in each well. NRH stock solution was prepared in ethanol at 100 mM (25.6 mg/ml) and stored at −20° C. Stock solutions of NRH esters were made at 50 mM in DMSO (see FIG. 9B for compound info). Cells were treated with NRH esters and NRH at 150 μM for 6 and 16 hrs, washed twice with PB S containing 5 mM EDTA, and then subject to Nicotinamide adenine dinucleotide (NAD) measurement as described in example 23.
# HaCaT cells were grown in regular culture media as described above and seeded in 12-well plates with density at 2×10^5 cells per well and 1 ml of culture medium in each well. NRH stock solution was prepared in ethanol at 100 mM (25.6 mg/ml) and stored at −20° C. NRH (200 μM) was used as a positive control. Because of the possible solubility issue related to NRH monoC16, fatty acid-free bovine serum albumin (defatted BSA, Sigma) was used as a carrier for the compound. NRH monoC16 stock solution (100×) was complexed with defatted BSA ([…]) prior to the treatment, resulting in a NRH monoC16 stock solution (10 ×). […]
# [2] = Gravimetric Vapor Sorption (GVS); assay type: physicochemical; conditions: 90% RH, 25° C.
# Procedure: Gravimetric Vapor Sorption (GVS): Samples were analyzed using a VTI corporation (now part of TA Instruments) SGA-100 with Cahn microbalance equipped with quartz sample and reference pans. Samples were dried in the SGA-100 under dry nitrogen for 5 hours at 25° C. followed by a moisture absorption step ramp from 5% relative humidity (RH) to 95% or 90% RH followed by a desorption step ramp back to 5% or 10% RH (all steps at 25° C.). The samples were held at each % RH step for 4 hours.
# [3] = Precipitation on addition of stock solution to cell culture media; assay type: physicochemical
# Procedure: as §1
# HaCaT cells were grown in regular culture media as described above and seeded in 12-well plates with density at 2×10^5 cells per well and 1 ml of culture medium in each well. NRH stock solution was prepared in ethanol at 100 mM (25.6 mg/ml) and stored at −20° C. NRH (200 μM) was used as a positive control. Because of the possible solubility issue related to NRH monoC16, fatty acid-free bovine serum albumin (defatted BSA, Sigma) was used as a carrier for the compound. NRH monoC16 stock solution (100×) was complexed with defatted BSA ([…]) prior to the treatment, resulting in a NRH monoC16 stock solution (10 ×). NRH monoC16 was then added to the culture media giving a final BSA concentration of 100 μM. […] Defatted BSA was also added to the control samples at a final concentration of 100 μM. […]
# HaCaT cells = experiment: H2O2-induced reactive oxygen species (ROS) in HaCaT cells (CellROX deep red); assay type: cell-based, human; conditions: 3 hr pre-incubation then 250 μM H2O2, Hydroxyterosol 0.005%, niacinamide 4.5 mM, NRH several concentrations
# Procedure: HaCaT cells were grown as described in example 23 and were seeded in 96-well plates (Nunc™ black with optical bottom, Thermo Fisher Scientific, Inc., Waltham, Mass.) with a density at 2×10^4 cells per well and 100 μl medium in each well, and grown overnight before treatments. Stock solutions of NRH and other test compounds were prepared and diluted to 2× of final treatment concentrations in DMEM medium in 96-well storage plate as indicated in the FIG. 11. HaCaT Cells were treated in triplicates by adding 100 μl of diluted solutions of test compounds (2×) to each well containing 100 μl medium already. Cells were incubated in the presence of test compounds for 3 hrs. At the end of 3 hr incubation, cells were washed once with 200 μl DPBS with Ca^++ and Mg^++ (Life Technologies) and then fed with 100 μl DMEM medium each well containing H2O2 at 250 μM (as a ROS (reactive oxygen species) inducer, Sigma). After 30 min incubation, cells were washed once with 200 μl DPBS with Ca^++ and Mg^++ and CellROX deep red reagent (2.5 mM stock solution, Life Technologies) was added to the medium to a final concentration of 5 μM. After 1 hr incubation at 37° C., 5% CO2, Cells were washed for 3 times with DPBS, fluorescence signal was read at Ex. 640 nm and Em. 665 nm in Biotek Synergy H4 microplate reader (BioTek, Winooski, Vt.). Untreated cells were served as controls (normalized to 1). All the treated samples were normalized to the untreated control.
# [4] = test system: Reconstructed human epidermis (EpiDerm, EPI-200); experiment: UVB-induced inflammation mediators in reconstructed epidermal equivalents; assay type: cell-based; conditions: topical 1 hr pre-treatment, NRH 0.1% or niacinamide 3%, UVB 150 mJ/cm^2, media 6 hr post irradiation
# Source text: Solar Ultraviolet (UV) light exposure on skin causes photoaging, sunburn, DNA damages and carcinogenesis. UV radiation (UVR) also results in inflammation, which can be measured in vitro by pro-inflammatory mediators, e.g., TNF-α, IL-8. The in vitro reconstructed human epidermis (RHE) model is used to evaluate the anti-inflammatory effect of NRH.
# Reconstructed human epidermis (EpiDerm, EPI-200, made of normal human epidermal keratinocytes, MatTek, Ashland, Mass.), were placed into media (EPI-100-ASY, 1.0 ml/well of 6-well plates) and incubated overnight at 37° C./5% CO2. The media was replenished with fresh culture media prior to study. NRH at 0.1% and niacinamide at 3% in vehicle (50% H2O/35% ethanol/15% propylene glycol, v/v/v) were applied topically at 6 μl and then gently spread onto the skin equivalents (˜20 rotations) using the rubber side of a plunger of 1 ml syringe. Vehicle was served as an untreated control. After 1 hr pre-treatment with NRH, niacinamide, or vehicle control, the EpiDerm tissues were transferred to a sterile 6-well plate containing 1 ml of DPBS per well and then exposed to UVB at 150 mJ/cm^2. The Newport Solar Simulator System (Power unit 69920, and Lamp 91192-1000, Newport Corporate, Irvine, Calif.) was used as the UVB emitter to achieve a UVB irradiation of 150 mJ/cm^2. Measurement of the irradiation was taken using an ILT-1400 Handheld, Portable Radiometer/Photometer (International Light Technologies, Inc., Peabody, Mass.) with a UVB detector (SEL240/T2ACT5, 235-307 nm, International Light Technologies, Inc.). After UVB irradiation, EpiDerm tissues were transferred back to the 6-well plate containing media and incubated at 37° C./5% CO2 for 6 hours. At the end of the incubation (6 hr post UVB irradiation), culture media were collected for the measurement of IL-8, and TNF-α concentration by MagPix (Millipore, HCYTOMAG-60K).
# Human dermal fibroblasts = experiment: TNFα-induced gene expression in dermal fibroblasts (QPCR); assay type: cell-based; conditions: TNFα 10 ng/ml, 30 hr
# Procedure: Human dermal fibroblasts were grown in regular culture media as described in example 23 above and seeded in 12-well plates at 2×10^5 cells per well for overnight. Cells were then replenished with fresh medium and treated with TNFα (10 ng/ml) with and without NRH (200 μM) for 30 hr. At the end of the incubation, cells were washed once with HBSS with Ca^2+ and Mg^2+ (Life Technologies), and subject to RNA isolation and QPCR analyses.
# [5] = HaCaT in Vit B3 depleted culture medium, 3 hrs
molecule,measurement,setting,value
CCCCCCCCCCCCCCCC(=O)OC[C@H]1O[C@@H](N2C=CCC(C(N)=O)=C2)[C@H](O)[C@@H]1O [NRH monoC16],NAD boosting activity,"[1]; HaCaT, 150 μM, 6 and 16 hrs",higher NAD boosting activity compared to all the other tested NR esters
same,activity after 24 hr compared with 6 hr treatment,"[1]; HaCaT, defatted BSA carrier",a higher activity was observed
same,NAD levels,"[1]; HaCaT, different concentrations, defatted BSA carrier (100 μM), 6 and 24 hrs",increases NAD levels in a dose dependent manner
same,NAD boosting activity relative to NRH,"[1]; HaCaT, same concentrations, defatted BSA carrier",slightly lower than that of NRH
same,GVS weight gain from the dried state,[2],approximately 7%
same,precipitation when stock solution added to the media,"[3]; 50 mM DMSO stock added to culture media, 150 μM",noticeable precipitations occurred
same,precipitation in culture media,"[3]; stock complexed with defatted BSA, final BSA 100 μM",no precipitation was observed
"NC(=O)c1cccnc1 [Niacinamide, pyridine-3-carboxamide, reference compound]",H2O2-induced ROS,HaCaT cells,did not inhibit
same,NAD elevation,"[1]; HaCaT in DMEM medium with Vit B3, highest tested doses, 3 hrs",did not lead to NAD elevation
same,NAD level,[1]; [5],increased NAD
same,dose dependence of induction of NAD,[1]; [5],dose-dependent
same,induction of NAD (highest),[1]; [5],~1.5 fold
same,UVB-induced IL-8,[4],not
same,UVB-induced TNF-α,[4],not
same,UVB-induced IL-8,[4]; listed as niacinamide,did not inhibit
same,UVB-induced TNF-α,[4]; listed as niacinamide,did not inhibit
TNF-α,COX-2 gene expression,Human dermal fibroblasts,induced COX-2 gene expression
